Data set [1] is described as follows: Water contact angle of compressed powder (wettability). The format is physicochemical. The following applies: pure water drop on compressed slice, Mean ± S.D., n = 3. Here is the method: Powdered materials of different formulations were measured for angle of repose applying a BT 1000 powder analyzer (DanDong Better size Instruments, China). The wettability of the powders was evaluated using a contact angle analyzer (Dataphysics OCA-35, Filderstadt, Germany). Prior to measurement, 300 mg of powder was dried and then compressed into a slice with a diameter size of approximately 12 mm under a pressure of 10 MPa for one minute. […] The dynamic wetting angle was recorded using a video system at the speed of 6 frames/min.

A short description of data set [2]: Dissolution test under sink condition. The format is physicochemical. The following applies: deionized water with 0.3% (w/v) SDS, 900 mL, 37 °C, 100 rpm, 20 mg FNB. The method, then: The dissolution test under sink condition was conducted utilizing a ZRS-8G dissolution tester equipped with USP paddle apparatus (TDTF, Tianjin, China) at 37 °C and 100 rpm. […] Aliquot release medium (5 mL) was withdrawn at predetermined time intervals and an equal volume of fresh medium was added to compensate the sampling loss. The obtained samples were filtered through a 0.22 μm microporous membrane, and determined at 288 nm by UV spectrophotometry (TU-1901, Beijing, China).

Take `CC(C)OC(=O)C(C)(C)Oc1ccc(C(=O)c2ccc(Cl)cc2)cc1` [FNB, Fenofibrate]: in data set [1], the Contact angle amounted to 87.2 ± 0.4 °. In addition, the “drug release after 5 min” value in data set [2] came out at 5.42%.

(Values after paper PMC7580725 (Drug Delivery, 2020).)
